Reference: ChEMBL document CHEMBL1201862, “PubChem BioAssay data set” (2004)
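Assay format: 96-well plates, 48-hour exposure. The concentration for 50% growth inhibition is given as GI50.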 Activity calls are given as the source filed them. No stated cut-off is given here; in the data, active = GI50 up to about 1.1 µM and inactive = higher.

Legend:
Assay in all cases: DTP human tumour cell line panel, 48 h
SK-MEL-5 = test system: SK-MEL-5
EKVX = test system: EKVX
A549 = test system: A549
OVCAR-4 = test system: OVCAR-4
UACC-62 = test system: UACC-62
HT-29 = test system: HT-29
UACC-257 = test system: UACC-257
OVCAR-5 = test system: OVCAR-5
SF-295 = test system: SF-295
CCRF-CEM = test system: CCRF-CEM
LOX IMVI = test system: LOX IMVI
TK-10 = test system: TK-10
PC-3 = test system: PC-3
HCT-15 = test system: HCT-15
T47D = test system: T47D
NCI-H226 = test system: NCI-H226
Malme-3M = test system: Malme-3M
COLO 205 = test system: COLO 205
786-0 = test system: 786-0
SK-MEL-2 = test system: SK-MEL-2

How did the GI50 (SK-MEL-5) turn out when N=C(N)NCCCS(=O)(=O)Nc1ccc(Nc2c3ccccc3nc3cc([N+](=O)[O-])ccc23)cc1 was run?
Its GI50 is 5.55 µM (inactive).

And the GI50 (EKVX)?
Its GI50 is 15.7 µM (inactive).

What about the GI50 (A549) of the same molecule?
The GI50 was 5.31 µM (inactive).

And the GI50 (OVCAR-4)?
Its GI50 is 16.6 µM (inactive).

And the GI50 (UACC-62)?
Its GI50 is 12.1 µM (inactive).

And the GI50 (HT-29)?
Its GI50 is 16.9 µM (inactive).

And the GI50 (UACC-257)?
Its GI50 is 22.5 µM (inactive).

What about the GI50 (OVCAR-5) of the same molecule?
The GI50 was 25.4 µM (inactive).

What about the GI50 (SF-295) of the same molecule?
The GI50 was 20.3 µM (inactive).

What about the GI50 (CCRF-CEM) of the same molecule?
Its GI50 is 12.6 µM (inactive).

What about the GI50 (LOX IMVI) of the same molecule?
Its GI50 is 16.4 µM (inactive).

And the GI50 (TK-10)?
The GI50 was 21.2 µM (inactive).

And the GI50 (PC-3)?
The GI50 was 11.7 µM (inactive).

What about the GI50 (HCT-15) of the same molecule?
Its GI50 is over 85.9 µM.

What about the GI50 (T47D) of the same molecule?
The GI50 was 0.728 µM (active).

And the GI50 (NCI-H226)?
The GI50 was 11.7 µM (inactive).

What about the GI50 (Malme-3M) of the same molecule?
The GI50 was 10.1 µM (inactive).

And the GI50 (COLO 205)?
The GI50 was 14.5 µM (inactive).

What about the GI50 (786-0) of the same molecule?
The GI50 was 19.2 µM (inactive).

What about the GI50 (SK-MEL-2) of the same molecule?
Its GI50 is 21.6 µM (inactive).

How did the GI50 (SK-MEL-5) turn out when Cc1ccc(Sc2ccccc2C23OC(C)(C4C(=O)N(c5ccccc5)C(=O)C42)N(C)C3=O)cc1 (stereo not given) was run?
The GI50 was > 100 µM (inactive).

What about the GI50 (EKVX) of the same molecule?
Its GI50 is > 100 µM (inactive).

What about the GI50 (A549) of the same molecule?
Its GI50 is > 100 µM (inactive).

What about the GI50 (OVCAR-4) of the same molecule?
Its GI50 is 84.5 µM (inactive).

What about the GI50 (UACC-62) of the same molecule?
Its GI50 is 88.5 µM (inactive).

What about the GI50 (HT-29) of the same molecule?
The GI50 was > 100 µM (inactive).

And the GI50 (UACC-257)?
Its GI50 is > 100 µM (inactive).

And the GI50 (OVCAR-5)?
The GI50 was > 100 µM (inactive).

What about the GI50 (SF-295) of the same molecule?
The GI50 was > 100 µM (inactive).

What about the GI50 (CCRF-CEM) of the same molecule?
The GI50 was > 100 µM (inactive).

And the GI50 (LOX IMVI)?
The GI50 was > 100 µM (inactive).

And the GI50 (TK-10)?
The GI50 was > 100 µM (inactive).

And the GI50 (PC-3)?
Its GI50 is > 100 µM (inactive).

What about the GI50 (HCT-15) of the same molecule?
Its GI50 is over 100 µM.

What about the GI50 (T47D) of the same molecule?
The GI50 was > 100 µM (inactive).

And the GI50 (NCI-H226)?
The GI50 was > 100 µM (inactive).

What about the GI50 (Malme-3M) of the same molecule?
Its GI50 is 79.6 µM (inactive).

What about the GI50 (COLO 205) of the same molecule?
Its GI50 is > 100 µM (inactive).

And the GI50 (786-0)?
Its GI50 is 96.6 µM (inactive).

What about the GI50 (SK-MEL-2) of the same molecule?
Its GI50 is > 100 µM (inactive).

For N#C/N=C(/NCc1ccccc1)N(Cc1ccccc1)Cc1ccccc1, which GI50 (SK-MEL-5) is on record?
The GI50 was 14.9 µM (inactive).

And the GI50 (EKVX)?
The GI50 was > 10 µM (inactive).

And the GI50 (A549)?
Its GI50 is 16.4 µM (inactive).

And the GI50 (OVCAR-4)?
The GI50 was 23.8 µM (inactive).

What about the GI50 (UACC-62) of the same molecule?
The GI50 was 8.13 µM (inactive).

What about the GI50 (HT-29) of the same molecule?
Its GI50 is > 10 µM (inactive).

What about the GI50 (UACC-257) of the same molecule?
Its GI50 is > 10 µM (inactive).

What about the GI50 (OVCAR-5) of the same molecule?
Its GI50 is 29.9 µM (inactive).

And the GI50 (SF-295)?
Its GI50 is 15.3 µM (inactive).

And the GI50 (CCRF-CEM)?
The GI50 was 16.1 µM (inactive).

And the GI50 (LOX IMVI)?
Its GI50 is 19.2 µM (inactive).

What about the GI50 (TK-10) of the same molecule?
Its GI50 is 24.8 µM (inactive).

And the GI50 (PC-3)?
Its GI50 is 28.2 µM (inactive).

What about the GI50 (HCT-15) of the same molecule?
Its GI50 is 20.7 µM.

What about the GI50 (T47D) of the same molecule?
The GI50 was 35 µM (inactive).

What about the GI50 (NCI-H226) of the same molecule?
Its GI50 is 22.4 µM (inactive).

What about the GI50 (Malme-3M) of the same molecule?
The GI50 was > 10 µM (inactive).

What about the GI50 (COLO 205) of the same molecule?
The GI50 was > 10 µM (inactive).

What about the GI50 (786-0) of the same molecule?
The GI50 was 23.2 µM (inactive).

What about the GI50 (SK-MEL-2) of the same molecule?
The GI50 was 15.2 µM (inactive).

For Cc1ccc(C(=O)N(Cc2ccccc2)Cc2ccccc2)cc1/N=N/N(C)C, which GI50 (SK-MEL-5) is on record?
Its GI50 is 10.7 µM (inactive).

What about the GI50 (EKVX) of the same molecule?
Its GI50 is 35.3 µM (inactive).

And the GI50 (A549)?
The GI50 was 17.5 µM (inactive).

What about the GI50 (OVCAR-4) of the same molecule?
Its GI50 is 11.2 µM (inactive).

And the GI50 (UACC-62)?
Its GI50 is 13.1 µM (inactive).

And the GI50 (HT-29)?
Its GI50 is 7.6 µM (inactive).

What about the GI50 (UACC-257) of the same molecule?
The GI50 was 6.75 µM (inactive).

What about the GI50 (OVCAR-5) of the same molecule?
The GI50 was 39.2 µM (inactive).

And the GI50 (SF-295)?
Its GI50 is 9.29 µM (inactive).

And the GI50 (CCRF-CEM)?
Its GI50 is 24.2 µM (inactive).

What about the GI50 (LOX IMVI) of the same molecule?
The GI50 was 7.23 µM (inactive).

What about the GI50 (TK-10) of the same molecule?
The GI50 was 33 µM (inactive).

What about the GI50 (PC-3) of the same molecule?
Its GI50 is 25.9 µM (inactive).

What about the GI50 (HCT-15) of the same molecule?
Its GI50 is 17.3 µM.

What about the GI50 (T47D) of the same molecule?
Its GI50 is 14.8 µM (inactive).

And the GI50 (NCI-H226)?
The GI50 was 19.1 µM (inactive).

What about the GI50 (Malme-3M) of the same molecule?
The GI50 was 18.2 µM (inactive).

And the GI50 (COLO 205)?
Its GI50 is 21.5 µM (inactive).

What about the GI50 (786-0) of the same molecule?
Its GI50 is 22.2 µM (inactive).

And the GI50 (SK-MEL-2)?
Its GI50 is 3.08 µM (inactive).

COc1ccc(OC)c(-c2cn3c(n2)sc2ccccc23)c1 was tested. Which GI50 (SK-MEL-5) did it give?
The GI50 was 65 µM (inactive).

What about the GI50 (EKVX) of the same molecule?
The GI50 was > 100 µM (inactive).

What about the GI50 (A549) of the same molecule?
The GI50 was > 100 µM (inactive).

And the GI50 (OVCAR-4)?
Its GI50 is > 100 µM (inactive).

What about the GI50 (UACC-62) of the same molecule?
Its GI50 is 64.1 µM (inactive).

What about the GI50 (HT-29) of the same molecule?
The GI50 was 8.26 µM (inactive).

And the GI50 (UACC-257)?
The GI50 was > 100 µM (inactive).

And the GI50 (OVCAR-5)?
Its GI50 is > 100 µM (inactive).

What about the GI50 (SF-295) of the same molecule?
The GI50 was 95.3 µM (inactive).

What about the GI50 (CCRF-CEM) of the same molecule?
Its GI50 is > 100 µM (inactive).

What about the GI50 (LOX IMVI) of the same molecule?
The GI50 was > 100 µM (inactive).

What about the GI50 (TK-10) of the same molecule?
The GI50 was > 100 µM (inactive).

And the GI50 (PC-3)?
Its GI50 is 30.6 µM (inactive).

What about the GI50 (HCT-15) of the same molecule?
Its GI50 is over 100 µM.

And the GI50 (T47D)?
Its GI50 is > 100 µM (inactive).

And the GI50 (NCI-H226)?
The GI50 was > 100 µM (inactive).

And the GI50 (Malme-3M)?
The GI50 was > 100 µM (inactive).

What about the GI50 (COLO 205) of the same molecule?
Its GI50 is > 100 µM (inactive).

And the GI50 (786-0)?
The GI50 was 58.5 µM (inactive).

What about the GI50 (SK-MEL-2) of the same molecule?
The GI50 was > 100 µM (inactive).

What does the source list for CC1(C)C2CC(c3ccncc3)ON2C(C)(C)N1O (stereo not given)?
GI50 (SK-MEL-5): > 100 µM (inactive); GI50 (EKVX): > 100 µM (inactive); GI50 (A549): > 100 µM (inactive); GI50 (OVCAR-4): > 100 µM (inactive); GI50 (UACC-62): > 100 µM (inactive); GI50 (HT-29): > 100 µM (inactive); GI50 (UACC-257): > 100 µM (inactive); GI50 (OVCAR-5): > 100 µM (inactive); GI50 (SF-295): > 100 µM (inactive); GI50 (CCRF-CEM): > 100 µM (inactive); GI50 (LOX IMVI): > 100 µM (inactive); GI50 (TK-10): > 100 µM (inactive); GI50 (PC-3): > 100 µM (inactive); GI50 (HCT-15): > 100 µM; GI50 (T47D): > 100 µM (inactive); GI50 (NCI-H226): > 100 µM (inactive); GI50 (Malme-3M): > 100 µM (inactive); GI50 (COLO 205): > 100 µM (inactive); GI50 (786-0): > 100 µM (inactive); GI50 (SK-MEL-2): > 100 µM (inactive)
